Values after ≈ are worked out from the molar mass of the structure shown. Read-outs that look alike come from different tables or passages of the source.
Legend:
Assay type in all cases: physicochemical
[1] = Dynamic Vapor Sorption (DVS) of free base
Description: Samples (˜10 mg) were transferred into a DVS instrument and recorded the weight change with respect to the atmospheric humidity at 25° C. using the following parameters: • Equilibrium: dm/dt: 0.01%/min. (for min: 10 min and max: 180 min). • Drying: 0% RH for 120 min • RH (%) measurement step: 10% • RH (%) measurement step scope: 0-90-0% (6) Proton Nuclear Magnetic Resonance (1H NMR) • 400 MHz Bruker with DMSO-d6 or MeOH-d4 solvents • Temperature: 27° C.
(1S,2S)-2-fluoro-N-(6-(4-methylpyridin-3-yl)benzo[d]thiazol-2-yl)cyclopropane-1-carboxamide free base appears as light yellow powder. Subsequently, the physical and thermal properties of free base were characterized. […] This free base form was named as Pattern A.

[2] = Solubility test of free base in bio-relevant media and buffers; details: for solubility at 24 h: thermodynamic from solid
Description: About 5 mg starting free base were weighed in 2 mL vials. Then 1.0 mL biorelevant media (SGF, FaSSIF and FeSSIF) and buffers were added into the vials. All the vials were placed on the thermo-mixer and kept at 37° C. (700 r/m in). After shaking at 37° C. for 24 hrs, mother liquids obtained by filtration were analyzed by HPLC directly or after being diluted by ACN/water for 20-40 times.

[3] = Solubility test of free base in solvents
Description: About 4 mg of (1S,2S)-2-fluoro-N-(6-(4-methylpyridin-3-yl)benzo[d]thiazol-2-yl)cyclopropane-1-carboxamide was weighed into a 2.0 mL glass vial and then selected solvents was added in the vial stepwise until all the solid was dissolved. The experiment was conducted by manual dilution combined with visual observation at 25° C. and 50° C. The total volume of solvent added was recorded.

In the case of `Cc1ccncc1-c1ccc2nc(NC(=O)[C@@H]3C[C@@H]3F)sc2c1` [free base, (1S,2S)-2-fluoro-N-(6-(4-methylpyridin-3-yl)benzo[d]thiazol-2-yl)cyclopropane-1-carboxamide], the “Hygroscopicity (DVS)” value [1] is reported as “Hygroscopic”, the “DVS (ΔW %, 80% RH)” value ([1]; 25° C., 80% RH) is reported as 2.30% and the “Form change (Yes/No, XRPD)” value ([1]; XRPD, listed after DVS) is reported as “(No)”. The “Final pH value” ([2]; FaSSIF, initial pH 6.52) was 6.50, the “Final pH value” ([2]; FeSSIF, initial pH 5.07) was 5.09 and the “Final pH value” ([2]; SGF, initial pH 1.92) was 2.28. For the same molecule, the solubility at 24 h ([2]; aqueous buffer, pH 2.0 buffer, initial pH 1.98, 37° C., 24 hrs) was 2060 µg/mL (≈ 6.29 mM), the solubility at 24 h ([2]; aqueous buffer, pH 4.0 buffer, initial pH 4.01, 37° C., 24 hrs) was 31 µg/mL (≈ 0.0947 mM) and the solubility at 24 h ([2]; aqueous buffer, pH 6.0 buffer, initial pH 5.90, 37° C., 24 hrs) was 2 µg/mL (≈ 0.00611 mM). The “Final pH value” ([2]; pH 2.0 buffer, initial pH 1.98) was 2.25, the “Final pH value” ([2]; pH 4.0 buffer, initial pH 4.01) was 4.05 and the “Final pH value” ([2]; pH 6.0 buffer, initial pH 5.90) was 5.88. For the same molecule, the “Final pH value” ([2]; pH 8.0 buffer, initial pH 8.04) was 8.08, the solubility at 24 h ([2]; simulated gastric fluid, SGF, initial pH 1.92, 37° C., 24 hrs) was 2490 µg/mL (≈ 7.61 mM) and the solubility at 24 h ([2]; simulated gastric fluid, in SGF and pH 2.0 buffer, 37° C., called medium solubility) was 2000 to 2500 µg/mL (≈ 6.11 to 7.64 mM). The solubility at 24 h ([2]; FeSSIF, initial pH 5.07, 37° C., 24 hrs) was 45 µg/mL (≈ 0.137 mM), the “Final pH value” ([2]; water) was 8.84 and the solubility ([3]; aqueous with cosolvent or surfactant or cyclodextrin, thermodynamic from solid, Acetone/H2O (1/1, v/v), 25° C., read-out: Solubility) was < 5000 µg/mL. The solubility ([3]; aqueous with cosolvent or surfactant or cyclodextrin, thermodynamic from solid, Acetone/H2O (1/1, v/v), 50° C., read-out: Solubility) was < 5000 µg/mL, the solubility ([3]; aqueous with cosolvent or surfactant or cyclodextrin, thermodynamic from solid, EtOH/H2O (1/1, v/v), 25° C., read-out: Solubility) was < 5000 µg/mL and the solubility ([3]; aqueous with cosolvent or surfactant or cyclodextrin, thermodynamic from solid, EtOH/H2O (1/1, v/v), 50° C., read-out: Solubility) was < 5000 µg/mL. The solubility ([3]; in DMF and DMSO) was “relatively high solubility”, the solubility ([3]; in mostly common use solvents) was “relatively low solubility” and the solubility ([3]; organic solvent or mixture, thermodynamic from solid, 1,4-dioxane, 25° C., read-out: Solubility) was < 5000 µg/mL. The solubility ([3]; organic solvent or mixture, thermodynamic from solid, 1,4-dioxane, 50° C., read-out: Solubility) was 7000 to 10000 µg/mL (≈ 21.4 to 30.5 mM), the solubility ([3]; organic solvent or mixture, thermodynamic from solid, 2-Propanol (IPA), 25° C., read-out: Solubility) was < 5000 µg/mL and the solubility ([3]; organic solvent or mixture, thermodynamic from solid, 2-Propanol (IPA), 50° C., read-out: Solubility) was < 5000 µg/mL. The solubility ([3]; organic solvent or mixture, thermodynamic from solid, Acetone, 25° C., read-out: Solubility) was < 5000 µg/mL, the solubility ([3]; organic solvent or mixture, thermodynamic from solid, Acetone, 50° C., read-out: Solubility) was < 5000 µg/mL and the solubility ([3]; organic solvent or mixture, thermodynamic from solid, Acetonitrile (ACN), 25° C., read-out: Solubility) was < 5000 µg/mL. For the same molecule, the solubility ([3]; organic solvent or mixture, thermodynamic from solid, Acetonitrile (ACN), 50° C., read-out: Solubility) was < 5000 µg/mL, the solubility ([3]; organic solvent or mixture, thermodynamic from solid, Dichloromethane (DCM), 25° C., read-out: Solubility) was < 5000 µg/mL and the solubility ([3]; organic solvent or mixture, thermodynamic from solid, Dimethylsulfoxide (DMSO), 25° C., read-out: Solubility) was > 100000 µg/mL. The solubility ([3]; organic solvent or mixture, thermodynamic from solid, Ethyl acetate (EtOAc), 25° C., read-out: Solubility) was < 5000 µg/mL, the solubility ([3]; organic solvent or mixture, thermodynamic from solid, Ethyl acetate (EtOAc), 50° C., read-out: Solubility) was < 5000 µg/mL and the solubility ([3]; organic solvent or mixture, thermodynamic from solid, Ethyl alcohol (EtOH), 25° C., read-out: Solubility) was < 5000 µg/mL. The solubility ([3]; organic solvent or mixture, thermodynamic from solid, Ethyl alcohol (EtOH), 50° C., read-out: Solubility) was < 5000 µg/mL, the solubility ([3]; organic solvent or mixture, thermodynamic from solid, Heptane, 25° C., read-out: Solubility) was < 5000 µg/mL and the solubility ([3]; organic solvent or mixture, thermodynamic from solid, Heptane, 50° C., read-out: Solubility) was < 5000 µg/mL. For the same molecule, the solubility ([3]; organic solvent or mixture, thermodynamic from solid, Isopropyl acetate (IPAc), 25° C., read-out: Solubility) was < 5000 µg/mL, the solubility ([3]; organic solvent or mixture, thermodynamic from solid, Isopropyl acetate (IPAc), 50° C., read-out: Solubility) was < 5000 µg/mL and the solubility ([3]; organic solvent or mixture, thermodynamic from solid, Methanol (MeOH), 25° C., read-out: Solubility) was < 5000 µg/mL. The solubility ([3]; organic solvent or mixture, thermodynamic from solid, Methanol (MeOH), 50° C., read-out: Solubility) was 5000 to 7000 µg/mL (≈ 15.3 to 21.4 mM), the solubility ([3]; organic solvent or mixture, thermodynamic from solid, Methyl ethyl ketone (MEK), 25° C., read-out: Solubility) was < 5000 µg/mL and the solubility ([3]; organic solvent or mixture, thermodynamic from solid, Methyl ethyl ketone (MEK), 50° C., read-out: Solubility) was < 5000 µg/mL. The solubility ([3]; organic solvent or mixture, thermodynamic from solid, Methyl isobutyl ketone (MIBK), 25° C., read-out: Solubility) was < 5000 µg/mL, the solubility ([3]; organic solvent or mixture, thermodynamic from solid, Methyl isobutyl ketone (MIBK), 50° C., read-out: Solubility) was < 5000 µg/mL and the solubility ([3]; organic solvent or mixture, thermodynamic from solid, Methyl tert-butyl ether (MtBE), 25° C., read-out: Solubility) was < 5000 µg/mL. The solubility ([3]; organic solvent or mixture, thermodynamic from solid, Methyl tert-butyl ether (MtBE), 50° C., read-out: Solubility) was < 5000 µg/mL, the solubility ([3]; organic solvent or mixture, thermodynamic from solid, N,N-Dimethylformamide (DMF), 25° C., read-out: Solubility) was 67000 to 100000 µg/mL (≈ 205 to 305 mM) and the solubility ([3]; organic solvent or mixture, thermodynamic from solid, N,N-Dimethylformamide (DMF), 50° C., read-out: Solubility) was > 100000 µg/mL. The solubility ([3]; organic solvent or mixture, thermodynamic from solid, Tetrahydrofuran (THF), 25° C., read-out: Solubility) was 8000 to 10000 µg/mL (≈ 24.4 to 30.5 mM), the solubility ([3]; organic solvent or mixture, thermodynamic from solid, Tetrahydrofuran (THF), 50° C., read-out: Solubility) was 9000 to 13000 µg/mL (≈ 27.5 to 39.7 mM) and the solubility ([3]; organic solvent or mixture, thermodynamic from solid, Toluene, 25° C., read-out: Solubility) was < 5000 µg/mL. The solubility ([3]; organic solvent or mixture, thermodynamic from solid, Toluene, 50° C., read-out: Solubility) was < 5000 µg/mL, the solubility ([3]; thermodynamic from solid, Water, 25° C., read-out: Solubility) was < 5000 µg/mL and the solubility ([3]; thermodynamic from solid, Water, 50° C., read-out: Solubility) was < 5000 µg/mL.
